Type in all cases: cell-based, human
One series concerns U2OS cells. Put plainly: Cell-cycle distribution by flow cytometry. The protocol:
Since p53 plays a central role in activation of the G1 checkpoint, and influences S, G2, and M checkpoints as well (Giaccia and Kastan, Genes & Development 12:2973-2983 (1998); Ko and Prives, supra, 1996), a functional deficiency of ATX might alter the cell-cycle arrest responses to IR and other genotoxic agents. To test this possibility, U2OS cells were pre-treated with S or AS oligonucleotides, exposed to IR, and cell-cycle distributions at 24 h post-irradiation were determined.
The G2 checkpoint inhibitor was added to the culture medium at 8 h prior to harvest for determination of cell-cycle distributions (FIG. 3E, left panel), and immunoblotting for ATX expression (right panel).
For orientation: In flow cytometry, cells or beads pass a laser one at a time.

The test system of the next series is hChk2. Put plainly: IR-dependent phosphorylation of hChk2. The settings on record: U2OS. An excerpt:
Recent findings point toward ATM as a critical upstream regulator of the activity of the checkpoint kinase, hChk2, in IR-damaged cells (Ahn et al., Cancer Res. 60:5934-5936 (2000); Melchionna et al., Nat. Cell Biol. 2:762-765 (2000)). To determine whether ATX was also involved in hChk2 activation, the effect of AS oligonucleotide treatment on the IR-dependent phosphorylation of hChk2 was examined. […] Moreover, the differential effects of AS treatment on p53 expression versus hChk2 activation argue against the possibility that AS exposure leads to nonspecific inhibition of checkpoint signaling responses to IR-induced DNA damage.

The next series relates to ATX. Put plainly: Protein levels in oligonucleotide-treated cells by immunoblotting. The settings on record: U2OS. The protocol: To prepare recombinant HA-tagged ATX and ATM proteins, HEK 293T cells were plated onto 60-mm dishes (9×10^5 cells per dish), and were transfected with 5 μg pcDNA3.1 (empty vector), HA-ATXWT, HA-ATXKI, or HA-ATMWT plasmid DNAS. Transfections were performed with the Fugene 6 transfection reagent (Roche), according to the manufacturer's instructions. For NMD assays (see Example 9, below), U2OS cells were seeded onto 100 mm dishes (1×10^6 cells per dish). After 20 h, cells were transfected with 1.5 μg of pmCMV-Gl test plasmid, either Norm or 39Ter (Ishigaki et al., 2001); 1.5 μg of phCMV-MUP reference plasmid (Ishigaki et al., Cell 106:607-617 (2001)); and 7 μg of empty plasmid (pcDNA 3.1), plasmids encoding HA-ATMWT, HA-ATMKI, HA-ATXWT or HA-ATXKI. […]
Since p53 plays a central role in activation of the G1 checkpoint, and influences S, G2, and M checkpoints as well (Giaccia and Kastan, Genes & Development 12:2973-2983 (1998); Ko and Prives, supra, 1996), a functional deficiency of ATX might alter the cell-cycle arrest responses to IR and other genotoxic agents. To test this possibility, U2OS cells were pre-treated with S or AS oligonucleotides, exposed to IR, and cell-cycle distributions at 24 h post-irradiation were determined. […]
On the technique in general: Immunoblotting shows a protein as a band on a membrane.

Results on one substance are retold here after patent US20030228675A1, “ATM related kinase ATX, nucleic acids encoding same and methods of use” (priority 2002, published 2003).

In the case of “5′-AGCAAGCTCCCTCCTGTCTC-3′ (all phosphorothioate, sugars by position and methylation of C not given here) [AS oligonucleotide, ATX antisense phosphorothioate oligonucleotide complementary to ATX nucleotides 210-229]”, in the series on U2OS cells (24 h post-irradiation), the “cell-cycle distribution after IR exposure” value is on record as “arrested primarily in G2/M phase”. Moreover, the “subpopulation with <2N DNA content (apoptotic cells)” value in the series with U2OS cells (no IR) is recorded as “increased subpopulation”. Besides, the “cell-cycle distribution in the absence of IR” value with U2OS cells (no IR, versus S oligonucleotide) was “reduction in the percentage of G1 phase cells, and a concomitant accumulation of G2/M phase cells”. The “IR-dependent phosphorylation of hChk2” value in the series on hChk2 was “retained the ability to phosphorylate hChk2”. Moreover, the “expression levels of control proteins ATM and PLC-γ1” value with ATX (immunoblot) is on record as “no significant change”. Besides, the “reduction in ATX protein” value in the series with ATX (over 10 independent trials) is given as 50-90%.
